Here are results for 22 molecules from patent EP2768830B1, “APOPTOSIS-INDUCING AGENTS FOR THE TREATMENT OF CANCER AND IMMUNE AND AUTOIMMUNE DISEASES” (AbbVie Inc., priority 2011, dated 2013).

The term Ki denotes the dissociation constant of the complex between target and ligand, obtained from inhibition or displacement.

Experiment [1] has as its system mouse FL5.12 cells transfected with Bcl-XL. The experiment can be described thus: FL5.12 cellular assay (cell viability, CellTiter-Glo).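 Also: each EC50 determination derived from duplicate measurements.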 It is filed as cell-based. Conditions: FL5.12 cells transfected with Bcl-XL, IL-3-depleted, 3% FBS assay media, 24 hours, CellTiter-Glo, read-out: FL5.12 Bcl-xL, - IL3, EC 50. In general terms: In ATP-based viability assays light output follows the ATP content of the culture.

In a further experiment the target is GST-Bcl-xL (Homo sapiens, UniProt Q07817). Particulars: read-out: TR-FRET binding Bcl-xL Ki. On the technique in general: In TR-FRET formats the signal depends on donor and acceptor labels being close together.

Each structure is given as a SMILES string. Like-named read-outs stand apart in the source and are kept apart here.

Chain of GST-Bcl-xL (Q07817 whole entry): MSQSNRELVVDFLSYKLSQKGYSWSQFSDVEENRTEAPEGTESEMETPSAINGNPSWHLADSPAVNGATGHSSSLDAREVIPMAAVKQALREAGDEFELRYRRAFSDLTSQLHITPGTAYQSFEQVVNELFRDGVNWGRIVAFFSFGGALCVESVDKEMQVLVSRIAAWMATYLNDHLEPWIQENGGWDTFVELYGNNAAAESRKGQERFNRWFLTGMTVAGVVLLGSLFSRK

Consider `Cc1c(-c2ccc(N3CCc4cccc(C(=O)Nc5nc6ccccc6s5)c4C3)nc2C(=O)O)c(CO)nn1Cc1ccccc1` [Example 30, 6-[8-(1,3-benzothiazol-2-ylcarbamoyl)-3,4-dihydroisoquinolin-2(1H)-yl]-3-[1-benzyl-3-(hydroxymethyl)-5-methyl-1H-pyrazol-4-yl]pyridine-2-carboxylic acid], for which the EC50 in experiment [1] (Mus musculus) came out at 298 nM. Besides, the Ki on GST-Bcl-xL stood at 2 nM.

In the case of `O=C(Nc1nc2ccccc2s1)c1cccc2c1CN(c1ccc(-c3cnn(Cc4ccccc4OCc4ccccc4)c3)c(C(=O)O)n1)CC2` [Example 31, 6-[8-(1,3-benzothiazol-2-ylcarbamoyl)-3,4-dihydroisoquinolin-2(1H)-yl]-3-{1-[2-(benzyloxy)benzyl]-1H-pyrazol-4-yl}pyridine-2-carboxylic acid], the EC50 in experiment [1] (Mus musculus) is greater than 1000 nM. Besides, the Ki on GST-Bcl-xL is 18 nM.

With `CCOC(=O)c1nn(Cc2ccccc2)c(C)c1-c1ccc(N2CCc3cccc(C(=O)Nc4nc5ccccc5s4)c3C2)nc1C(=O)O` [Example 33, 6-[8-(1,3-benzothiazol-2-ylcarbamoyl)-3,4-dihydroisoquinolin-2(1H)-yl]-3-[1-benzyl-3-(ethoxycarbonyl)-5-methyl-1H-pyrazol-4-yl]pyridine-2-carboxylic acid], the EC50 in experiment [1] (Mus musculus) is greater than 1000 nM. Moreover, the Ki on GST-Bcl-xL worked out at 169 nM.

With `CN(C)c1cccc(Cn2cc(-c3ccc(N4CCc5cccc(C(=O)Nc6nc7ccccc7s6)c5C4)nc3C(=O)O)cn2)c1` [Example 34, 6-[8-(1,3-benzothiazol-2-ylcarbamoyl)-3,4-dihydroisoquinolin-2(1H)-yl]-3-{1-[3-(dimethylamino)benzyl]-1H-pyrazol-4-yl}pyridine-2-carboxylic acid], in experiment [1] (Mus musculus), the EC50 amounted to 907 nM. Also, at GST-Bcl-xL, the Ki came to 23 nM.

Take `O=C(Nc1nc2ccccc2s1)c1cccc2c1CN(c1ccc(-c3cnn(Cc4ccccc4O)c3)c(C(=O)O)n1)CC2` [Example 36, 6-[8-(1,3-benzothiazol-2-ylcarbamoyl)-3,4-dihydroisoquinolin-2(1H)-yl]-3-[1-(2-hydroxybenzyl)-1H-pyrazol-4-yl]pyridine-2-carboxylic acid]: in experiment [1] (Mus musculus), the EC50 is greater than 1000 nM. Besides, on GST-Bcl-xL, the Ki was 8 nM.

As for `O=C(Nc1nc2ccccc2s1)c1cccc2c1CN(c1ccc(-c3cnn(C4CCc5ccccc54)c3)c(C(=O)O)n1)CC2` (centres unmarked) [Example 37, 6-[8-(1,3-benzothiazol-2-ylcarbamoyl)-3,4-dihydroisoquinolin-2(1H)-yl]-3-[1-(2,3-dihydro-1H-inden-1-yl)-1H-pyrazol-4-yl]pyridine-2-carboxylic acid], the EC50 in experiment [1] (Mus musculus) worked out at 347 nM. The Ki at GST-Bcl-xL stood at 17 nM.

As to `O=C(Nc1nc2ccccc2s1)c1cccc2c1CN(c1ccc(-c3cnn(CCc4ccccc4)c3)c(C(=O)O)n1)CC2` [Example 38, 6-[8-(1,3-benzothiazol-2-ylcarbamoyl)-3,4-dihydroisoquinolin-2(1H)-yl]-3-[1-(2-phenylethyl)-1H-pyrazol-4-yl]pyridine-2-carboxylic acid], in experiment [1], the EC50 is greater than 1000 nM. At GST-Bcl-xL, the Ki is 48 nM.

On to `O=C(Nc1nc2ccccc2s1)c1cccc2c1CN(c1ccc(-c3cnn(C4CCOc5ccccc54)c3)c(C(=O)O)n1)CC2` (centres unmarked) [Example 39, 6-[8-(1,3-benzothiazol-2-ylcarbamoyl)-3,4-dihydroisoquinolin-2(1H)-yl]-3-[1-(3,4-dihydro-2H-chromen-4-yl)-1H-pyrazol-4-yl]pyridine-2-carboxylic acid], for which, in experiment [1] (Mus musculus), the EC50 was greater than 1000 nM. Besides, the Ki on GST-Bcl-xL was 56 nM.

Turning to `CN(C)CCOc1ccccc1Cn1cc(-c2ccc(N3CCc4cccc(C(=O)Nc5nc6ccccc6s5)c4C3)nc2C(=O)O)cn1` [Example 40, 6-[8-(1,3-benzothiazol-2-ylcarbamoyl)-3,4-dihydroisoquinolin-2(1H)-yl]-3-(1-{2-[2-(dimethylamino)ethoxy]benzyl}-1H-pyrazol-4-yl)pyridine-2-carboxylic acid], the EC50 in experiment [1] (Mus musculus) came out at 570 nM. Further, at GST-Bcl-xL, the Ki was determined as 16 nM.

Regarding `Cc1c(-c2ccc(N3CCc4cccc(C(=O)Nc5nc6ccccc6s5)c4C3)nc2C(=O)O)cnn1Cc1ccccc1F` [Example 41, 6-[8-(1,3-benzothiazol-2-ylcarbamoyl)-3,4-dihydroisoquinolin-2(1H)-yl]-3-[1-(2-fluorobenzyl)-5-methyl-1H-pyrazol-4-yl]pyridine-2-carboxylic acid], the EC50 in experiment [1] (Mus musculus) was determined as 11 nM. Moreover, the Ki on GST-Bcl-xL came to 1 nM.

Take `O=C(Nc1nc2ccccc2s1)c1cccc2c1CN(c1ccc(-c3cnn(CC4CCCCC4)c3)c(C(=O)O)n1)CC2` [Example 42, 6-[8-(1,3-benzothiazol-2-ylcarbamoyl)-3,4-dihydroisoquinolin-2(1H)-yl]-3-[1-(cyclohexylmethyl)-1H-pyrazol-4-yl]pyridine-2-carboxylic acid]: the EC50 in experiment [1] (Mus musculus) was 233 nM. In addition, the Ki at GST-Bcl-xL stood at 2 nM.

With `CN(C)CCCNc1ccc(Cn2cc(-c3ccc(N4CCc5cccc(C(=O)Nc6nc7ccccc7s6)c5C4)nc3C(=O)O)cn2)cc1[N+](=O)[O-]` [Example 44, 6-[8-(1,3-benzothiazol-2-ylcarbamoyl)-3,4-dihydroisoquinolin-2(1H)-yl]-3-[1-(4-{[3-(dimethylamino)propyl]amino}-3-nitrobenzyl)-1H-pyrazol-4-yl]pyridine-2-carboxylic acid], the EC50 in experiment [1] (Mus musculus) is greater than 1000 nM. On GST-Bcl-xL, the Ki was determined as 17 nM.

For the molecule `O=C(Nc1nc2ccccc2s1)c1cccc2c1CN(c1ccc(-c3cnn(Cc4ccc(F)c([N+](=O)[O-])c4)c3)c(C(=O)O)n1)CC2` [Example 45, 6-[8-(1,3-benzothiazol-2-ylcarbamoyl)-3,4-dihydroisoquinolin-2(1H)-yl]-3-[1-(4-fluoro-3-nitrobenzyl)-1H-pyrazol-4-yl]pyridine-2-carboxylic acid], in experiment [1] (Mus musculus), the EC50 is greater than 1000 nM. Also, the Ki on GST-Bcl-xL was determined as 19 nM.

Consider `O=C(Nc1nc2ccccc2s1)c1cccc2c1CN(c1ccc(-c3cnn(Cc4ccccc4OCCN4CCOCC4)c3)c(C(=O)O)n1)CC2` [Example 46, 6-[8-(1,3-benzothiazol-2-ylcarbamoyl)-3,4-dihydroisoquinolin-2(1H)-yl]-3-(1-{2-[2-(morpholin-4-yl)ethoxy]benzyl}-1H-pyrazol-4-yl)pyridine-2-carboxylic acid], for which the EC50 in experiment [1] (Mus musculus) is greater than 1000 nM. Moreover, on GST-Bcl-xL, the Ki came to 9 nM.

Take `CN(C)CCCOc1ccccc1Cn1cc(-c2ccc(N3CCc4cccc(C(=O)Nc5nc6ccccc6s5)c4C3)nc2C(=O)O)cn1` [Example 47, 6-[8-(1,3-benzothiazol-2-ylcarbamoyl)-3,4-dihydroisoquinolin-2(1H)-yl]-3-(1-{2-[3-(dimethylamino)propoxy]benzyl}-1H-pyrazol-4-yl)pyridine-2-carboxylic acid]: the EC50 in experiment [1] (Mus musculus) was found to be 881 nM. Also, the Ki on GST-Bcl-xL was determined as 16 nM.

`O=C(Nc1nc2ccccc2s1)c1cccc2c1CN(c1ccc(-c3cnn(Cc4ccccc4OCc4ccncc4)c3)c(C(=O)O)n1)CC2` [Example 48, 6-[8-(1,3-benzothiazol-2-ylcarbamoyl)-3,4-dihydroisoquinolin-2(1H)-yl]-3-{1-[2-(pyridin-4-ylmethoxy)benzyl]-1H-pyrazol-4-yl}pyridine-2-carboxylic acid]: the EC50 in experiment [1] (Mus musculus) was greater than 1000 nM. In addition, the Ki at GST-Bcl-xL is 7 nM.

As for `Cc1c(-c2ccc(N3CCc4cccc(C(=O)Nc5nc6ccccc6s5)c4C3)nc2C(=O)O)cnn1Cc1ccccc1OCCN(C)C` [Example 49, 6-[8-(1,3-benzothiazol-2-ylcarbamoyl)-3,4-dihydroisoquinolin-2(1H)-yl]-3-(1-{2-[2-(dimethylamino)ethoxy]benzyl}-5-methyl-1H-pyrazol-4-yl)pyridine-2-carboxylic acid], the EC50 in experiment [1] (Mus musculus) was 12 nM. The Ki at GST-Bcl-xL came to 0.6 nM.

`O=C(Nc1nc2ccccc2s1)c1cccc2c1CN(c1ccc(-c3cnn(CC4CCOCC4)c3)c(C(=O)O)n1)CC2` [Example 50, 6-[8-(1,3-benzothiazol-2-ylcarbamoyl)-3,4-dihydroisoquinolin-2(1H)-yl]-3-[1-(tetrahydro-2H-pyran-4-ylmethyl)-1H-pyrazol-4-yl]pyridine-2-carboxylic acid]: the EC50 in experiment [1] (Mus musculus) was greater than 1000 nM. Further, the Ki on GST-Bcl-xL came to 99 nM.

On to `CN(C)CC#Cc1ccccc1Cn1cc(-c2ccc(N3CCc4cccc(C(=O)Nc5nc6ccccc6s5)c4C3)nc2C(=O)O)cn1` [Example 51, 6-[8-(1,3-benzothiazol-2-ylcarbamoyl)-3,4-dihydroisoquinolin-2(1H)-yl]-3-(1-{2-[3-(dimethylamino)prop-1-yn-1-yl]benzyl}-1H-pyrazol-4-yl)pyridine-2-carboxylic acid], for which the EC50 in experiment [1] (Mus musculus) was greater than 1000 nM. In addition, the Ki at GST-Bcl-xL was 122 nM.

Consider `O=C(Nc1nc2ccccc2s1)c1cccc2c1CN(c1ccc(-c3cnn(Cc4cccc(F)c4F)c3)c(C(=O)O)n1)CC2` [Example 52, 6-[8-(1,3-benzothiazol-2-ylcarbamoyl)-3,4-dihydroisoquinolin-2(1H)-yl]-3-[1-(2,3-difluorobenzyl)-1H-pyrazol-4-yl]pyridine-2-carboxylic acid], for which, in experiment [1] (Mus musculus), the EC50 was determined as 570 nM. The inhibitory constant (Ki) at GST-Bcl-xL stood at 18 nM.

Turning to `O=C(Nc1nc2ccccc2s1)c1cccc2c1CN(c1ccc(-c3cnn(Cc4cc(F)cc(F)c4)c3)c(C(=O)O)n1)CC2` [Example 53, 6-[8-(1,3-benzothiazol-2-ylcarbamoyl)-3,4-dihydroisoquinolin-2(1H)-yl]-3-[1-(3,5-difluorobenzyl)-1H-pyrazol-4-yl]pyridine-2-carboxylic acid], in experiment [1], the EC50 came to 387 nM. Besides, at GST-Bcl-xL, the Ki amounted to 14 nM.

As to `O=C(Nc1nc2ccccc2s1)c1cccc2c1CN(c1ccc(-c3cnn(Cc4cc(F)ccc4F)c3)c(C(=O)O)n1)CC2` [Example 54, 6-[8-(1,3-benzothiazol-2-ylcarbamoyl)-3,4-dihydroisoquinolin-2(1H)-yl]-3-[1-(2,5-difluorobenzyl)-1H-pyrazol-4-yl]pyridine-2-carboxylic acid], the EC50 in experiment [1] (Mus musculus) amounted to 501 nM. Moreover, the Ki on GST-Bcl-xL amounted to 15 nM.
